Where a chain is given by its changes, count along the chain named. Numbers in names are those of the source.
T1: Ima5p (Saccharomyces cerevisiae, UniProt P40884)
T1 sequence (P40884 1-581): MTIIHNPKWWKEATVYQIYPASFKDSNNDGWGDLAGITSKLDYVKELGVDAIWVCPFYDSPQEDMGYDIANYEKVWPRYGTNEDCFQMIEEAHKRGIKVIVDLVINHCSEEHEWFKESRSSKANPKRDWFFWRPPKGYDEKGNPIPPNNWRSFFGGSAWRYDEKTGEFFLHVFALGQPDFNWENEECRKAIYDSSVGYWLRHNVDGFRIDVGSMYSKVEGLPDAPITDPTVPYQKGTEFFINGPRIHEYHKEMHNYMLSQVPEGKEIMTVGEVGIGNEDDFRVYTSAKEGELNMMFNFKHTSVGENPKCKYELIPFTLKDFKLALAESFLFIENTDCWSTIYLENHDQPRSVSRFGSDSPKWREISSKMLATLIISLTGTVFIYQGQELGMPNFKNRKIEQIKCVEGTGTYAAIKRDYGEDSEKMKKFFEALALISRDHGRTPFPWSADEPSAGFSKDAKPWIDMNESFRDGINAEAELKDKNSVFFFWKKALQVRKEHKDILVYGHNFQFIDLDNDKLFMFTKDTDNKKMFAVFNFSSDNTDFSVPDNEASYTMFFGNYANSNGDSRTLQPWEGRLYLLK

B1: Ima5p: isomaltase from S. cerevisiae encoded by IMA5/YJL216C, His-tagged, purified (protein, UniProt P40884 1-581, looked up)
Oligo-1,6-glucosidase IMA5: T1 sequence (P40884 1-581)
modifications: His tag
B2: Ima3p: isomaltase from S. cerevisiae encoded by IMA3/YIL172C (identical IMA4), His-tagged, purified (protein, UniProt P0CW41 1-589, looked up)
Oligo-1,6-glucosidase IMA4: MTISSAHPETEPKWWKEATIYQIYPASFKDSNNDGWGDMKGIASKLEYIKELGTDAIWISPFYDSPQDDMGYDIANYEKVWPTYGTNEDCFALIEKTHKLGMKFITDLVINHCSSEHEWFKESRSSKTNPKRDWFFWRPPKGYDAEGKPIPPNNWRSYFGGSAWTFDEKTQEFYLRLFCSTQPDLNWENEDCRKAIYESAVGYWLDHGVDGFRIDVGSLYSKVAGLPDAPVIDENSKWQLSDPFTMNGPRIHEFHQEMNKFIRNRVKDGREIMTVGEMRHATDETKRLYTSASRHELSELFNFSHTDVGTSPKFRQNLIPYELKDWKVALAELFRYVNGTDCWSTIYLENHDQPRSITRFGDDSPKNRVISGKLLSVLLVSLSGTLYVYQGQELGEINFKNWPIEKYEDVEVRNNYDAIKEEHGENSKEMKRFLEAIALISRDHARTPMQWSREEPNAGFSGPNAKPWFYLNESFREGINAEDESKDPNSVLNFWKEALRFRKAHKDITVYGYDFEFIDLDNKKLFSFTKKYDNKTLFAALNFSSDSIDFTIPNNSSSFKLEFGNYPRSEVDASSRTLKPWEGRIYISE
modifications: His tag
B3: Ima3p_R279Q: Ima3p variant with R279Q mutation (protein, UniProt P0CW40 1-589, looked up, variant R279Q)
Oligo-1,6-glucosidase IMA3: B2 Oligo-1,6-glucosidase IMA4 with R279Q

Key:
Ima3p [1] = target: T2, Ima3p (Saccharomyces cerevisiae, UniProt P0CW40); assay: Kinetic parameters for selected substrates; format: biochemical; settings: for Km: affinity constant for the substrate; for Km / kcat: mean ± SEM; for Ki: inhibition by high concentration of substrate
Ima3pR279Q = Ima3pR279Q (Saccharomyces cerevisiae, UniProt P0CW40, R279Q); assay: Substrate specificity of purified isomaltase variant; format: biochemical; settings: 100 mM substrate (pNPG 5 mM), citrate–potassium phosphate buffer, pH 7, 30 °C
Ima2p [2] = target: T3, Ima2p (Saccharomyces cerevisiae, UniProt Q08295); assay: Substrate specificity of purified isomaltase; format: biochemical; settings: 100 mM substrate (pNPG 5 mM), pH 7, 30 °C; for Specific activities: citrate–potassium phosphate buffer
Ima1p [3] = target: T4, Ima1p (Saccharomyces cerevisiae, UniProt P53051); assay: Kinetic parameters for selected substrates; format: biochemical; settings: for Km: affinity constant for the substrate; for Km / kcat: mean ± SEM; for Ki: inhibition by high concentration of substrate
Ima1p [4] = target: T4, Ima1p; assay: Substrate specificity of purified isomaltase; format: biochemical; settings: 100 mM substrate (pNPG 5 mM), pH 7, 30 °C; for Specific activities: citrate–potassium phosphate buffer
Ima5p [5] = target: T1, Ima5p; assay: Kinetic parameters for selected substrates; format: biochemical; settings: for Km: affinity constant for the substrate; for Km / kcat: mean ± SEM; for Ki: inhibition by high concentration of substrate
Ima2p [6] = target: T3, Ima2p; assay: Kinetic parameters for selected substrates; format: biochemical; settings: for Km: affinity constant for the substrate; for Km / kcat: mean ± SEM; for Ki: inhibition by high concentration of substrate
Ima3pL240P = Ima3pL240P (Saccharomyces cerevisiae, UniProt P0CW40, L240P); assay: Substrate specificity of purified isomaltase variant; format: biochemical; settings: 100 mM substrate (pNPG 5 mM), citrate–potassium phosphate buffer, pH 7, 30 °C
Ima5p [7] = target: T1, Ima5p; assay: Substrate specificity of purified isomaltase; format: biochemical; settings: 100 mM substrate (pNPG 5 mM), pH 7, 30 °C; for Specific activities: citrate–potassium phosphate buffer
Ima3p [8] = target: T2, Ima3p; assay: Substrate specificity of purified isomaltase; format: biochemical; settings: 100 mM substrate (pNPG 5 mM), pH 7, 30 °C; for Specific activities: citrate–potassium phosphate buffer
[9] = Melting temperature by differential scanning fluorimetry; format: physicochemical, Saccharomyces cerevisiae; settings: mean ± 2 SEM
[10] = Thermostability assay: time-dependent heat inactivation, half-life; format: biochemical, Saccharomyces cerevisiae; settings: pNPG 5 mM, mean ± 2 SEM

T4 sequence (P53051 whole entry): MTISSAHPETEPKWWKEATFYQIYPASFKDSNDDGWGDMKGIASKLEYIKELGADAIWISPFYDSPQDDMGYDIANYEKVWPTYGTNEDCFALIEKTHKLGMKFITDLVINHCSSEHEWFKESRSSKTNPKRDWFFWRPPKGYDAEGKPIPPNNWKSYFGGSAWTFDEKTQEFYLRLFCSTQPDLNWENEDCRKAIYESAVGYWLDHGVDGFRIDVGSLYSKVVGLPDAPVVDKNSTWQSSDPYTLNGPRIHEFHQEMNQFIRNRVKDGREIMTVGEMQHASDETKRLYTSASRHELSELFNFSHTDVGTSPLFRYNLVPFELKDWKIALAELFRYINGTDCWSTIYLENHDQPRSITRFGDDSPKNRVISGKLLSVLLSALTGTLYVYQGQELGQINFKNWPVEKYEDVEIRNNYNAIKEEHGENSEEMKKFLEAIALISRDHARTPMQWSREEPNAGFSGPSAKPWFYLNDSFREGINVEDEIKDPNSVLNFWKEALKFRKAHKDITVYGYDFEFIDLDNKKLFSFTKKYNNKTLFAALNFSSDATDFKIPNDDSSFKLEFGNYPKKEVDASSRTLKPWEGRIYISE
Sequence of Ima3pL240P (P0CW40 whole entry L240P): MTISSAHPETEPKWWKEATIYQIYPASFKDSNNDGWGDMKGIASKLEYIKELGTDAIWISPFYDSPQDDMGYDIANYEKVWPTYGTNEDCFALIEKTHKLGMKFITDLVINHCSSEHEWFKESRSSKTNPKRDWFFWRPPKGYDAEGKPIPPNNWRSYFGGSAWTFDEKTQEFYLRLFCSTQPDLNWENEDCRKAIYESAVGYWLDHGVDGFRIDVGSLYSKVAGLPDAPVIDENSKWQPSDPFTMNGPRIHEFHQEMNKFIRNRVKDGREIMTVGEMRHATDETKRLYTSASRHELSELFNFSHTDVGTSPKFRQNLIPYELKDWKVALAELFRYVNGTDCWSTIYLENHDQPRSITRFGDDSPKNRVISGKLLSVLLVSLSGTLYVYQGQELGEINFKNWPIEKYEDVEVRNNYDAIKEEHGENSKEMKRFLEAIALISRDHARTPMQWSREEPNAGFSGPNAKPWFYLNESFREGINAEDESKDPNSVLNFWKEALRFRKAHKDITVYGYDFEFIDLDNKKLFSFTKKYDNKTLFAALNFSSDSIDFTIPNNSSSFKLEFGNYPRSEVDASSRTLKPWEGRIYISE
Sequence of Ima3pR279Q (P0CW40 whole entry R279Q): as the sequence (P0CW40 whole entry L240P) above, with P240L, R279Q counted along it
T3 sequence (Q08295 whole entry): as the sequence (P0CW40 whole entry L240P) above, with T54A, R279Q counted along it

Molecule | kcat (Ima3p [1]) | Specific activities (Ima3pR279Q) | Specific activities (Ima2p [2]) | relative activity, velocity on isomaltose set to 100 (Ima2p [2]) | Km (Ima1p [3]) | kcat (Ima1p [3]) | Specific activities (Ima1p [4]) | relative activity, velocity on isomaltose set to 100 (Ima1p [4]) | Km (Ima5p [5]) | kcat (Ima5p [5]) | Km (Ima2p [6]) | kcat (Ima2p [6]) | Specific activities (Ima3pL240P) | Specific activities (Ima5p [7]) | relative activity, velocity on isomaltose set to 100 (Ima5p [7]) | Specific activities (Ima3p [8]) | Ki (Ima3p [1]) | t1/2 ([10]; 37 °C) | t1/2 ([10]; 40 °C) | other results
OC[C@H]1O[C@H](OC[C@H]2O[C@H](O)[C@H](O)[C@@H](O)[C@@H]2O)[C@H](O)[C@@H](O)[C@@H]1O [Isomaltose, O-α-D-Glucosyl-(1→6)-α-D-glucose] | 15 ± 2 s⁻¹ | 29 µmol/min/mg | 54 µmol/min/mg | 100% | 17 ± 4 mM | 103 ± 12 s⁻¹ | 60 µmol/min/mg | 100% | 13 ± 2 mM | 101 ± 8 s⁻¹ | 17 ± 2 mM | 97 ± 5 s⁻¹ | 2.2 µmol/min/mg | 65 µmol/min/mg | 100% | 7.2 µmol/min/mg | – | – | – | Km (Ima3p [1]): 37 ± 9 mM; relative activity, velocity on isomaltose set to 100 (Ima3p [8]): 100%
OC[C@H]1O[C@H](OC[C@H]2O[C@H](OC[C@H]3OC(O)[C@H](O)[C@@H](O)[C@@H]3O)[C@H](O)[C@@H](O)[C@@H]2O)[C@H](O)[C@@H](O)[C@@H]1O (stereo partly drawn) [Isomaltotriose, O-α-D-Glucosyl-(1→6)-α-D-glucosyl-(1→6)-D-glucose] | 0 s⁻¹ | – | 7.6 µmol/min/mg | 14% | – | 21 ± 4 s⁻¹ | 7.9 µmol/min/mg | 13% | 83 ± 25 mM | 18 ± 3 s⁻¹ | 72 ± 16 mM | 15 ± 2 s⁻¹ | – | 8.6 µmol/min/mg | 13% | 0 µmol/min/mg | None | – | – | Ki (Ima1p [3]): None; Ki (Ima5p [5]): None; Ki (Ima2p [6]): None
OC[C@H]1O[C@H](O[C@@H]2COC(O)(CO)[C@@H](O)[C@@H]2O)[C@H](O)[C@@H](O)[C@@H]1O (stereo partly drawn) [Leucrose, O-α-D-Glucosyl-(1→5)-D-fructose] | – | 1.5 µmol/min/mg | 8.6 µmol/min/mg | 16% | – | – | 8.6 µmol/min/mg | 14% | – | – | – | – | 0 µmol/min/mg | 1.1 µmol/min/mg | 2% | 0 µmol/min/mg | – | – | – | –
OC[C@H]1O[C@H](OC[C@H]2OC(O)(CO)[C@@H](O)[C@@H]2O)[C@H](O)[C@@H](O)[C@@H]1O (stereo partly drawn) [Palatinose, O-α-D-Glucosyl-(1→6)-D-fructose] | 6.0 ± 0.1 s⁻¹ | 33 µmol/min/mg | 74 µmol/min/mg | 137% | 18 ± 4 mM | 78 ± 8 s⁻¹ | 52 µmol/min/mg | 87% | 12 ± 3 mM | 56 ± 5 s⁻¹ | 11 ± 2 mM | 104 ± 6 s⁻¹ | 2.8 µmol/min/mg | 39 µmol/min/mg | 60% | 5 µmol/min/mg | None | – | – | Km (Ima3p [1]): 7 ± 0.7 mM; relative activity, velocity on isomaltose set to 100 (Ima3p [8]): 69%
OC[C@H]1O[C@H](OC[C@H]2O[C@H](O[C@H]3[C@H](O)[C@@H](O)C(O)O[C@@H]3CO)[C@H](O)[C@@H](O)[C@@H]2O)[C@H](O)[C@@H](O)[C@@H]1O (stereo partly drawn) [Panose, O-α-D-Glucosyl-(1→6)-α-D-glucosyl-(1→4)-D-glucose] | 0 s⁻¹ | 3.1 µmol/min/mg | 2.9 µmol/min/mg | 5% | 82 ± 17 mM | 6.3 ± 0.5 s⁻¹ | 3.1 µmol/min/mg | 5% | 82 ± 12 mM | 23 ± 1 s⁻¹ | – | 7.7 ± 0.7 s⁻¹ | 0 µmol/min/mg | 11 µmol/min/mg | 17% | 0 µmol/min/mg | None | – | – | Ki (Ima1p [3]): None; Ki (Ima5p [5]): None; more activity of Ima5p than Ima1p (Ima5p [5]; whatsoever the panose concentration): 3.5 fold; Ki (Ima2p [6]): None
B1 | – | – | – | – | – | – | – | – | – | – | – | – | – | – | – | – | – | 2.9 ± 0.4 min | 0.8 ± 0.1 min | Tm ([9]; pH 6, DSF): 36.6 ± 0.4 °C; Tm ([9]; pH 8, DSF): 35.7 ± 0.5 °C
B2 | – | – | – | – | – | – | – | – | – | – | – | – | – | – | – | – | – | 23.2 ± 1.4 min | 7.6 ± 0.9 min | Tm ([9]; pH 6, DSF): 47.0 ± 0.3 °C; Tm ([9]; pH 7, DSF): 38.8 ± 0.5 °C; Tm ([9]; pH 8, DSF): 29.9 ± 0.3 °C; t1/2 ([10]; 42 °C): 2.9 ± 0.5 min
B3 | – | – | – | – | – | – | – | – | – | – | – | – | – | – | – | – | – | 9.5 ± 1.7 min | 2.0 ± 0.3 min | Tm ([9]; pH 7, DSF): 37.6 ± 0.8 °C

From article PMC3953731 (FEBS Open Bio, 2014)
